Test results from ChEMBL document CHEMBL5104193, “Hypoxia-Activated Prodrugs with Dual COX-2/CA Inhibitory Effects on Attenuating Cardiac Inflammation under Hypoxia” (J Med Chem, 2022).
Active and inactive are the calls of the source. No cut-off for these calls is given here.

Tested on: H9c2
Assay: Protection against LPS induced cell injury in rat H9c2 cells assessed as increase in cell viability under hypoxic condition at 0.001 to 10 uM by CCK-8 assay
Type: functional, cell-based
Settings: dose 0.001-10 µM

| Structure (SMILES) | Activity |
| --- | --- |
| Cc1cc(CO)c(OCc2ccc([N+](=O)[O-])cc2)c(COC(=O)Cn2cc(CCCCC(=O)Nc3nnc(S(N)(=O)=O)s3)nn2)c1 | Active |
| COc1ccc2c(c1)c(CC(=O)OCc1cc(C)cc(CO)c1OCc1ccc([N+](=O)[O-])cc1)c(C)n2C(=O)c1ccc(Cl)cc1 | Active |
| COc1ccc2cc([C@H](C)C(=O)OCc3cc(C)cc(COC(=O)NCCc4ccc(S(N)(=O)=O)cc4)c3OCc3ccc([N+](=O)[O-])cc3)ccc2c1 | Active |
| COc1ccc2c(c1)c(CC(=O)OCc1cc(C)cc(COC(=O)NCCc3ccc(S(N)(=O)=O)cc3)c1OCc1ccc([N+](=O)[O-])cc1)c(C)n2C(=O)c1ccc(Cl)cc1 | Active |
